From patent US10994010B2, “Selective targeting of the CD40L/Mac-1 interaction by small peptide inhibitors and its use for the treatment of inflammation and atherogenesis” (Universitaetsklinikum Freiburg, priority 2010, dated 2021) come the findings set out here.

In test [1] the target is T1, CD40L binding to Mac-1 I-domain (Homo sapiens, UniProt P29965).
T1 construct: inserting the coding DNA for amino acids E^108 to L^261 in pHOG-21; His (N); trimerization domain (N); made in house
T1 sequence (P29965 108-261): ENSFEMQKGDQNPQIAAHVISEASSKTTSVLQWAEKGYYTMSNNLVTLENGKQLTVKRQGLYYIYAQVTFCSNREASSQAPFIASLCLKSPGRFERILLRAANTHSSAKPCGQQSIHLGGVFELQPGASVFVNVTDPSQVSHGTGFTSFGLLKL
Nature of the test: Solid phase binding assay: blocking of CD40L binding to immobilized Mac-1 I-domain by peptides. The settings on record: for blocking of CD40L / Mac-1 I-domain binding: peptides 50 μM. The procedure: (§1) Solid phase binding assay. Recombinant CD40L was incubated with immobilized Mac-1 I-domain in the presence or absence of blocking peptides. Binding of sCD40L was detected by addition of anti-cmyc-HRP (Invitrogen), TMB-substrate (Pierce), and colorimetric reaction. Alternatively, CD40L (Provitro) was immobilized, and binding of the recombinant Mac-1 I-domain was quantified by addition of anti-His-Biotin (Qiagen), and HRP-coupled streptavidin (Pierce). For the binding to immobilized peptides, CD40L was biotinylated with the Micro Biotinylation Kit (Sigma). A mixture of equal molarities of all peptides served as the positive control in this assay.
The recombinant Mac-1 I-domain was immobilized in 96-well plates (Nunc) in PBS at 4° C. overnight. After blocking in 2% BSA/PBS and subsequent washing with PBS, recombinant CD40L was added to the wells in the indicated concentrations and incubated for 2 hours at 37° C. Effect of the peptides M1-M8 was assessed by incubating CD40L (10 μg/ml) in the presence of peptides (50 μM). After removing of unbound CD40L by washing with 0.1% Tween-20/PBS, anti-c-myc-HRP (Invitrogen) was added and incubated for 2 hours at room temperature. Binding was quantified by addition of TMB-substrate (Pierce), colorimetric reaction at 450 nm. Alternatively, CD40L without a His-tag (Provitro) was immobilized and blocked as described above. Binding of the recombinant Mac-1 I-domain was quantified by addition of anti-His-Biotin monoclonal antibody (Qiagen), HRP-coupled streptavidin (Pierce) and colorimetric reaction at 450 nm. For the specific binding of the Mac-1 I-domain BSA-coated wells were subtracted from the CD40L-coated. Kd was estimated using a one-site binding hyperbola nonlinear regression model with the Software Prism (Graphpad). For quantification of the binding of CD40L to peptides, peptides were immobilized in 96-well plates overnight at 4° C. in 50 mM sodium carbonate, pH 10.6. CD40L was biotinylated using the Micro-Biotinylation-Kit (Sigma) following the manufacturer's instructions and detected by HRP-coupled streptavidin (Pierce) and colorimetric reaction. A mixture of equal molarities of all peptides served as positive control. Absorbance on BSA-coated wells served as negative control and was subtracted.

For test [2], the system named is adhesion of THP-1 cells to CD40L. As to the kind of experiment: Static adhesion assay: activated THP-1 cells on immobilized CD40L. The following applies: peptides 50 μM. The format is cell-based. The procedure: (§2) 96-well plates (Nunc) were coated with sCD40L and incubated with CHO cells expressing constitutively activated Mac-1, as described previously, or THP-1 cells. Cells were allowed to adhere for 20 to 50 minutes. Blocking antibodies (10 μg/ml) were pre-incubating with the cells. As indicated, assays were carried out in the presence of peptides (50 μM). Permeabilization buffer (6 mg/ml phosphatase substrate (Sigma), 1% Triton X-100, 50 mM sodium acetate, pH 5.5) was added to quantify adhering cells by colorimetric reaction. Alternatively, adhering cells were counted. Murine EC were isolated as previously described. Mac-1 expressing CHO were loaded with CFDA-SE (Invitrogen), allowed to adhere for 45 minutes, and quantified under the fluorescence microscope. […] Adhering and rolling cells were quantified in a parallel flow chamber system (Glycotech) at the indicated shear rates and in the presence of the indicated peptides (1 μM) or antibodies (10 μg/ml). […]
96-well plates (Nunc) were coated with sCD40L (10 μg/ml) in PBS overnight at 4° C. […] After removal of unbound cells by washing with PBS, permeabilization buffer (6 mg/ml phosphatase substrate (Sigma), 1% Triton X-100, 50 mM sodium acetate, pH 5.5) was added for 1 hour at 37° C. and adhering cells were quantified by colorimetric reaction at 405 nm. Alternatively, adhering cells were counted under the microscope (Zeiss). […]

Test [3] deals with human granulocytes and monocytes. Nature of the test: Flow cytometry: binding of CD40L to human granulocytes and monocytes. The format is cell-based. On the procedure:
(§3) Flow cytometric analysis, platelet activation assays, and quantification of leukocyte-platelet aggregates, were performed as previously described (Zirlik et al., 2007). Binding of cM7 to CD40L-expressing murine fibroblasts was determined by quantification of FITC-coupled cM7. Binding of CD40L to Mac-1 expressing CHO-cells or human leukocytes was performed by incubation with CD40L (10 μg/ml) and subsequent detection with anti-PentaHis antibody (Qiagen).
(§4) Flow cytometric analyses, as well as platelet activation assays and quantification of leukocyte-platelet aggregates were performed as previously described (Quezada et al., Ann. Rev. Immunol. (2004), pp 307-328). Briefly, murine blood samples were taken by intracardiac puncture. Red cells were lyzed in 155 mM NH4Cl, 5.7 mM K2HPO4, 0.1 mM EDTA, pH 7.3. […] Antibodies for epitope specific fluorescence-activated cell sorting (FACS Calibur, BD) included anti-CD11b, anti-CD115, anti-Gr-1, anti-CD4, anti-CD8, anti-CD20, anti-CD41, anti-CD62P, anti-CD54, anti-CD102, and anti-CD106 (all from Ebioscience). Binding of cM7 to CD40L- or mock-transfected murine fibroblasts was determined by incubation of FITC-cM7 at the indicated concentrations with cells for 30 min at 37° C. and subsequent quantification of the fluorescence in the FL-1 channel. […]
On the technique in general: In flow cytometry, cells or beads pass a laser one at a time.

The test system of test [4] is Mac-1 expressing CHO cells. Nature of the test: Flow cytometry: binding of CD40L to Mac-1 expressing CHO cells. It counts as cell-based. The settings on record: peptides 50 μM. The procedure:
as §3, §4

The target of test [5] is T2, CD40L (Homo sapiens, UniProt P29965).
T2 construct: inserting the coding DNA for amino acids E^108 to L^261 in pHOG-21; c-myc (N); His (N); trimerization domain (N); made in house; host or cells: E. coli TG-1
T2 sequence (P29965 108-261): T1 sequence (P29965 108-261)
As to the kind of experiment: Solid phase assay: direct binding of biotinylated CD40L to immobilized peptides. The procedure:
as §1
The recombinant Mac-1 I-domain was immobilized in 96-well plates (Nunc) in PBS at 4° C. overnight. […] Effect of the peptides M1-M8 was assessed by incubating CD40L (10 μg/ml) in the presence of peptides (50 μM). […] Binding was quantified by addition of TMB-substrate (Pierce), colorimetric reaction at 450 nm. […] Binding of the recombinant Mac-1 I-domain was quantified by addition of anti-His-Biotin monoclonal antibody (Qiagen), HRP-coupled streptavidin (Pierce) and colorimetric reaction at 450 nm. […] For quantification of the binding of CD40L to peptides, peptides were immobilized in 96-well plates overnight at 4° C. in 50 mM sodium carbonate, pH 10.6. […] Absorbance on BSA-coated wells served as negative control and was subtracted.

The subject of test [6] is adhesion of Mac-1-CHO cells to GPIbα. Nature of the test: Dynamic flow chamber assay: Mac-1-CHO cells on GPIbα. The settings on record: peptides 1 μM. The format is cell-based. The procedure: as §2
For dynamic adhesion assays, 35 mm dishes were coated overnight at 4° C. with 1% BSA, CD40L, GPIbα (Abnova), ICAM-1 (R&D systems) or fibrinogen (Sigma), at a concentration of 10 μg/ml, and 30 μg/ml, respectively. […] Cells were quantified under the microscope (Olympus). […] Adhesion and rolling of peritoneal exudate cells on isolated murine endothelial cells was quantified as described above. […]

No end group written: not given here.

By IC50 is commonly meant the concentration that inhibits the measured activity by half. Read a low IC50 as inhibition by little substance. For EQLKKSKTL [Peptide M7], the IC50 in test [1] (concentration dependent) is approximately 4 µM. For the same sequence, the “blocking of CD40L / Mac-1 I-domain binding” value in test [1] is “emerged as potential candidate inhibitors”. Also, in test [2], the “blocking of adhesion of THP-1 cells to CD40L” value was “most efficiently blocked adhesion of THP-1 cells to CD40L”. Besides, the “blocking of binding of CD40L to human granulocytes and monocytes” value in test [3] is “the only peptide blocking binding of CD40L to human granulocytes and monocytes”. The “blocking of binding of CD40L to Mac-1-CHO cells” value in test [4] is recorded as “neutralized binding of CD40L”. Further, the “direct binding of CD40L to immobilized peptide” value in test [5] is reported as “mediated direct binding to CD40L”.
Regarding “PITQLLGRTHTATGIRK (therapeutically active peptide) [Peptide M2, GPIbα-specific control peptide]”, the “blocking of CD40L / Mac-1 I-domain binding” value in test [1] is “not affecting CD40L-Mac-1 binding”. Besides, the “effect on adhesion of Mac-1-CHO cells to GPIbα” value in test [6] was “blocked the interaction between Mac-1 and GPIbα”.
